Measurements taken from PMC3969271, “A Bacterial Homolog of a Eukaryotic Inositol Phosphate Signaling Enzyme Mediates Cross-kingdom Dialog in the Mammalian Gut” (Cell Reports, 2014).

Assays:
BtMinpp [1] = target: T1, BtMinpp (Bacteroides thetaiotaomicron, UniProt Q89YI8); experiment: HPLC of […]-labelled products; phosphatase activity; assay type: biochemical; conditions: 1 mM InsP6; 0.25 μg/ml enzyme; labelled compound
T1 construct: gene BT_4744; N-terminal 6xHis fusion, expressed in Escherichia coli
T1 sequence (Q89YI8 21-425): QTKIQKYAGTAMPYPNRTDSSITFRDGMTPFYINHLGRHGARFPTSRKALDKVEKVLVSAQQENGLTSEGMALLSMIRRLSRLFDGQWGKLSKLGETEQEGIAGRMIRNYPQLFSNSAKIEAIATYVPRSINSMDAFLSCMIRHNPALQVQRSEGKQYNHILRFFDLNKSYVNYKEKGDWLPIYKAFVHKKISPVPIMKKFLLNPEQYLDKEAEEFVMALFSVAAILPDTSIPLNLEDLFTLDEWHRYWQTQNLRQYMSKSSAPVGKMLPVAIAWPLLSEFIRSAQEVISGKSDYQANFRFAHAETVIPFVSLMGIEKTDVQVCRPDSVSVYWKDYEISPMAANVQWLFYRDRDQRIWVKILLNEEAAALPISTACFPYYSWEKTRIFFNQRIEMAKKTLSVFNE

BtMinpp [2] = target: T1, BtMinpp; experiment: X-ray crystal structure, […] Å; assay type: binding; conditions: active site; nonhydrolysable InsP6 analog

Compound | HPLC of 32P-labelled products; phosphatase activity (BtMinpp [1]) | X-ray crystal structure, 2.42 Å (BtMinpp [2])
O=P(O)(O)O[C@H]1[C@H](OP(=O)(O)O)[C@@H](OP(=O)(O)O)[C@H](OP(=O)(O)O)[C@@H](OP(=O)(O)O)[C@H]1OP(=O)(O)O [InsP6] | confirmed that this protein has InsP6 phosphatase activity (Figure 1A) | –
O=S(=O)(O)O[C@H]1[C@H](OS(=O)(=O)O)[C@@H](OS(=O)(=O)O)[C@H](OS(=O)(=O)O)[C@@H](OS(=O)(=O)O)[C@H]1OS(=O)(=O)O [InsS6, myo-inositol hexakissulfate] | – | myo-inositol hexakissulfate (InsS6), again bound in the active sites of both molecules
